Data set [1] relates to locomotor activity of rats. The data set can be described thus: Open field test. The data set is classed as in vivo. The settings on record: rat; 3–30 mg/kg oral, one hour after administration.
Another data set addresses cycooxygenase-2 (COX2) (Homo sapiens, UniProt P35354). The data set can be described thus: Enzyme characterization panel: COX2. The settings on record: data not shown. Type of data set: biochemical.
Another data set relates to rats. As to the kind of experiment: Diuretic effect in rats. The settings on record: pharmacological/toxicological dose range. Type of data set: in vivo, rat.
The target of the next data set is PI 3-Kγ (Homo sapiens, UniProt P48736). The data set can be described thus: Enzyme characterization panel: PI 3-Kγ. The data set is classed as biochemical. The settings on record: data not shown.
Another data set addresses I1 (Bos taurus, UniProt F1N322). The data set can be described thus: Receptor characterization panel: I1 binding. The settings on record: read-out: 10 μM CR4056 (% effect), inhibition of specific binding. Details: species or system bovine.
The next data set has as its target T1, MAO-A (Rattus norvegicus, UniProt P21396).
T1 sequence (P21396 1-526): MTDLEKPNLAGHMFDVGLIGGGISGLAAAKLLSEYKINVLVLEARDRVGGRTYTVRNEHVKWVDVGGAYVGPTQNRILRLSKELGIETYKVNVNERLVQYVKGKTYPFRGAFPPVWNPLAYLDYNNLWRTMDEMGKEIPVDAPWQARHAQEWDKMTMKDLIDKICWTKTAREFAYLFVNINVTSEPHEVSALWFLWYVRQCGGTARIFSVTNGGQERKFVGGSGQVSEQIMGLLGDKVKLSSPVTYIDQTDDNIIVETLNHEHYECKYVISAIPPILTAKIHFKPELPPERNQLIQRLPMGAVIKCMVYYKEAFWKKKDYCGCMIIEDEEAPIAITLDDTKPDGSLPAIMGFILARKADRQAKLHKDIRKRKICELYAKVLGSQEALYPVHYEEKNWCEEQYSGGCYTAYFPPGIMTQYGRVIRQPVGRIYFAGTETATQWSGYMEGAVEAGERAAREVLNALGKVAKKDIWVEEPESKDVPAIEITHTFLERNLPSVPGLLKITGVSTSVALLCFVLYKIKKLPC
The data set can be described thus: MAO-A binding.

A further data set concerns the target CCK1 (Rattus norvegicus, UniProt P30551). The data set can be described thus: Receptor characterization panel: CCK1 binding. The settings on record: read-out: 10 μM CR4056 (% effect), inhibition of specific binding.
The target of a further data set is carbonic anhydrase II (Homo sapiens, UniProt P00918). The data set can be described thus: Enzyme characterization panel: carbonic anhydrase II. Type of data set: biochemical. To be noted: data not shown.
In another data set the target is imidazoline I2 receptor. The data set can be described thus: [3H]2-BFI binding to imidazoline I2 receptors in rat whole-brain membranes. To be noted: read-out: IC50, nM, [3H]2-BFI binding to the imidazoline I2 receptor; Table S2; rat whole brain membranes, […] [3H]2-BFI, 90 minutes at 25°C; mean ± SEM.
The next data set addresses PI 3-Kβ (Homo sapiens, UniProt P42338). The data set can be described thus: Enzyme characterization panel: PI 3-Kβ. Type of data set: biochemical. To be noted: data not shown.
Data set [2] has as its target Glycine (strychnine-sensitive) (Rattus norvegicus, UniProt P07727). As to the kind of experiment: Receptor characterization panel: glycine receptor binding. To be noted: read-out: 10 μM CR4056 (% effect), inhibition of specific binding.
The target of a further data set is PI 3-Kδ (Homo sapiens, UniProt O00329). As to the kind of experiment: Enzyme characterization panel: PI 3-Kδ. The data set is classed as biochemical. The settings on record: data not shown.
The target in the next data set is D1 (Rattus norvegicus, UniProt P18901). The data set can be described thus: Receptor characterization panel: D1 binding. To be noted: read-out: 10 μM CR4056 (% effect), inhibition of specific binding.
In data set [3] the test system is neuromuscular coordination of rats. The data set can be described thus: Rotarod test. To be noted: rat; oral 3–30 mg/kg. Type of data set: in vivo.
The next data set deals with BDZ (central). As to the kind of experiment: Receptor characterization panel: central BDZ binding. To be noted: 10 μM; [3H]Flunitrazepam; cerebral cortex/rat.
For the next data set, the system named is conscious rat. As to the kind of experiment: Safety pharmacology, respiratory, conscious rat. Type of data set: in vivo. To be noted: supra-pharmacological doses.

Consider one compound from publication PMC3100226 (Journal of Pain Research, 2011).

Chain of D1 (P18901 whole entry): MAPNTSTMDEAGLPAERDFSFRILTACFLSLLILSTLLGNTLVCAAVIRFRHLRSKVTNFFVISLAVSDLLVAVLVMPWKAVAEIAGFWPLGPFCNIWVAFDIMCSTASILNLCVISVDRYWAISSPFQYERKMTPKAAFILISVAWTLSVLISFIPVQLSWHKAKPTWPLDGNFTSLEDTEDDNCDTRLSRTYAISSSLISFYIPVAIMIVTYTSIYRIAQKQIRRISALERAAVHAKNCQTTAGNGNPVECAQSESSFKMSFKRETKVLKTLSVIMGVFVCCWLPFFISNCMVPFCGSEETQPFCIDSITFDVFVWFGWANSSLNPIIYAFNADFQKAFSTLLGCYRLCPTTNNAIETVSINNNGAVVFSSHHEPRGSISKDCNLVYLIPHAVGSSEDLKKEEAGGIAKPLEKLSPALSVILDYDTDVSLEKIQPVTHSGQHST
Chain of PI 3-Kβ (P42338 whole entry, species assumed): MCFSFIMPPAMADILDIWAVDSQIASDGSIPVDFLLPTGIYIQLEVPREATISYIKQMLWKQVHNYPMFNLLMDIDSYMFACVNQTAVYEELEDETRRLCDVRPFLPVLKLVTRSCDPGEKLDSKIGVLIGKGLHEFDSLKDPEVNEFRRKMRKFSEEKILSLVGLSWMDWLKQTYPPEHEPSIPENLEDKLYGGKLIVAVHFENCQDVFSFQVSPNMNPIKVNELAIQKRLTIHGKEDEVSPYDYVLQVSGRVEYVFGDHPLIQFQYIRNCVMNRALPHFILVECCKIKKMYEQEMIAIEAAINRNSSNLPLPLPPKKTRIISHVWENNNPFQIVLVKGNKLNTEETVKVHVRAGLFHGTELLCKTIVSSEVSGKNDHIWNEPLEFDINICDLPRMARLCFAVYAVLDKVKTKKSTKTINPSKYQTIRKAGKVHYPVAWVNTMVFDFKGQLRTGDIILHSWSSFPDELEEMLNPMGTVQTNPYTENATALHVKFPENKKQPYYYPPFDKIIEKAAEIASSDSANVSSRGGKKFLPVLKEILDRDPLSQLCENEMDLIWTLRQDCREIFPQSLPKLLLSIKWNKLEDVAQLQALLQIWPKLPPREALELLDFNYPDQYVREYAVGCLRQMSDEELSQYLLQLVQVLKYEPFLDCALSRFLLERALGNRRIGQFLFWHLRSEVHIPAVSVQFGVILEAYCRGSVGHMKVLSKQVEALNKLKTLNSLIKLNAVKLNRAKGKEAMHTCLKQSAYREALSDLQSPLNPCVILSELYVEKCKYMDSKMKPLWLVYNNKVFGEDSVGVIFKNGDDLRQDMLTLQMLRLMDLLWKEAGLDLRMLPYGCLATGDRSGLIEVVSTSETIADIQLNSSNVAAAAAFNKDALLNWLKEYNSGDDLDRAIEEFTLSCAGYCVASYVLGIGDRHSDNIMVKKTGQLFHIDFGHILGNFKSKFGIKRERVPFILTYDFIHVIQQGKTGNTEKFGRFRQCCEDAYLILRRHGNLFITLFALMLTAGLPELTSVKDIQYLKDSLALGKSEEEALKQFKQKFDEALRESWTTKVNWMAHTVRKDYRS
Chain of PI 3-Kβ (P27986 whole entry partner, species assumed): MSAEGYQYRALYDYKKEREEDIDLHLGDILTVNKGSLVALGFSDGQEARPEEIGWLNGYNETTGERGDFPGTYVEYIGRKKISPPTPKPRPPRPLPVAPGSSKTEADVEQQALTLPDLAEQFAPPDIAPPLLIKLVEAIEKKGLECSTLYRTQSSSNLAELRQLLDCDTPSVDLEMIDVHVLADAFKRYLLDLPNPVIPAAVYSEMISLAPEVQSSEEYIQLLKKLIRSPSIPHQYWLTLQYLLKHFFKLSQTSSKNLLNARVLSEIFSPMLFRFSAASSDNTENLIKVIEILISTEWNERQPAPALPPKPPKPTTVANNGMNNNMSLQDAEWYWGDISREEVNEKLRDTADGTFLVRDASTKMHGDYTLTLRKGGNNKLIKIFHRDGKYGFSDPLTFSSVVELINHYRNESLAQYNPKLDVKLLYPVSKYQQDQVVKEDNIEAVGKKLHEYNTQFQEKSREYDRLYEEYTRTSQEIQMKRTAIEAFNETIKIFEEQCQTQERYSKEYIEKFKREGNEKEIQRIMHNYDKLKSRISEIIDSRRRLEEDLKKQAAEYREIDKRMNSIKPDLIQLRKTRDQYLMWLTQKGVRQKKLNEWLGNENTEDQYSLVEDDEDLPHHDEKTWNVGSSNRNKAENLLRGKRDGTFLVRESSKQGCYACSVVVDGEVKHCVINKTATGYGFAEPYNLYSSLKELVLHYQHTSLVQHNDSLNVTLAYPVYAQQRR
Chain of cycooxygenase-2 (COX2) (P35354 18-604): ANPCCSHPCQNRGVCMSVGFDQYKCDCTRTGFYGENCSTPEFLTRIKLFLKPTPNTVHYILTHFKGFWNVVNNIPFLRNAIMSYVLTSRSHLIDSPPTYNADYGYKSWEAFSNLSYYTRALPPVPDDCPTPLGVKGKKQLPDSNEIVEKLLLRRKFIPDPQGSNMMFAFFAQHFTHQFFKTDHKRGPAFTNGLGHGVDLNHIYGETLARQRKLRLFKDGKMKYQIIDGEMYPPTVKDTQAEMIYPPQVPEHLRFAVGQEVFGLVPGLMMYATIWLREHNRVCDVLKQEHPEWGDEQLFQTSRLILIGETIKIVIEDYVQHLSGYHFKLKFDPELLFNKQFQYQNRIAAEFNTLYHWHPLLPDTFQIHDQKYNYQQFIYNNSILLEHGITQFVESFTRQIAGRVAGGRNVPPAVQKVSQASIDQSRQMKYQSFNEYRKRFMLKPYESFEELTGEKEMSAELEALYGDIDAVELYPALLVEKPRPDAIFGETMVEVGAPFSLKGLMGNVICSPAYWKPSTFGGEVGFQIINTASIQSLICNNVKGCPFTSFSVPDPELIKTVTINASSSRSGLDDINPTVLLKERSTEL
Chain of CCK1 (P30551 whole entry): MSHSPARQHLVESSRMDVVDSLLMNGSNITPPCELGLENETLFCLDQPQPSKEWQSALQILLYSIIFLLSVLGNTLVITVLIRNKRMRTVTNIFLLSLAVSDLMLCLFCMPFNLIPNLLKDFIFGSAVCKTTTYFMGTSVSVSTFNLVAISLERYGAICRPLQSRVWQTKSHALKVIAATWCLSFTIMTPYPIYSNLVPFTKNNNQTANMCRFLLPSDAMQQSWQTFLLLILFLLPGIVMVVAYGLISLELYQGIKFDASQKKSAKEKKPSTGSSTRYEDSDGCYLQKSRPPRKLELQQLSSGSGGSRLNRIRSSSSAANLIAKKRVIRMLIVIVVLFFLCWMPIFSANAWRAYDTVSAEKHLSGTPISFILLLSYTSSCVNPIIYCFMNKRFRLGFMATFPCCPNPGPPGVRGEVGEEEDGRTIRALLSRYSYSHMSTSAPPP
Chain of I1 (F1N322 1-1508): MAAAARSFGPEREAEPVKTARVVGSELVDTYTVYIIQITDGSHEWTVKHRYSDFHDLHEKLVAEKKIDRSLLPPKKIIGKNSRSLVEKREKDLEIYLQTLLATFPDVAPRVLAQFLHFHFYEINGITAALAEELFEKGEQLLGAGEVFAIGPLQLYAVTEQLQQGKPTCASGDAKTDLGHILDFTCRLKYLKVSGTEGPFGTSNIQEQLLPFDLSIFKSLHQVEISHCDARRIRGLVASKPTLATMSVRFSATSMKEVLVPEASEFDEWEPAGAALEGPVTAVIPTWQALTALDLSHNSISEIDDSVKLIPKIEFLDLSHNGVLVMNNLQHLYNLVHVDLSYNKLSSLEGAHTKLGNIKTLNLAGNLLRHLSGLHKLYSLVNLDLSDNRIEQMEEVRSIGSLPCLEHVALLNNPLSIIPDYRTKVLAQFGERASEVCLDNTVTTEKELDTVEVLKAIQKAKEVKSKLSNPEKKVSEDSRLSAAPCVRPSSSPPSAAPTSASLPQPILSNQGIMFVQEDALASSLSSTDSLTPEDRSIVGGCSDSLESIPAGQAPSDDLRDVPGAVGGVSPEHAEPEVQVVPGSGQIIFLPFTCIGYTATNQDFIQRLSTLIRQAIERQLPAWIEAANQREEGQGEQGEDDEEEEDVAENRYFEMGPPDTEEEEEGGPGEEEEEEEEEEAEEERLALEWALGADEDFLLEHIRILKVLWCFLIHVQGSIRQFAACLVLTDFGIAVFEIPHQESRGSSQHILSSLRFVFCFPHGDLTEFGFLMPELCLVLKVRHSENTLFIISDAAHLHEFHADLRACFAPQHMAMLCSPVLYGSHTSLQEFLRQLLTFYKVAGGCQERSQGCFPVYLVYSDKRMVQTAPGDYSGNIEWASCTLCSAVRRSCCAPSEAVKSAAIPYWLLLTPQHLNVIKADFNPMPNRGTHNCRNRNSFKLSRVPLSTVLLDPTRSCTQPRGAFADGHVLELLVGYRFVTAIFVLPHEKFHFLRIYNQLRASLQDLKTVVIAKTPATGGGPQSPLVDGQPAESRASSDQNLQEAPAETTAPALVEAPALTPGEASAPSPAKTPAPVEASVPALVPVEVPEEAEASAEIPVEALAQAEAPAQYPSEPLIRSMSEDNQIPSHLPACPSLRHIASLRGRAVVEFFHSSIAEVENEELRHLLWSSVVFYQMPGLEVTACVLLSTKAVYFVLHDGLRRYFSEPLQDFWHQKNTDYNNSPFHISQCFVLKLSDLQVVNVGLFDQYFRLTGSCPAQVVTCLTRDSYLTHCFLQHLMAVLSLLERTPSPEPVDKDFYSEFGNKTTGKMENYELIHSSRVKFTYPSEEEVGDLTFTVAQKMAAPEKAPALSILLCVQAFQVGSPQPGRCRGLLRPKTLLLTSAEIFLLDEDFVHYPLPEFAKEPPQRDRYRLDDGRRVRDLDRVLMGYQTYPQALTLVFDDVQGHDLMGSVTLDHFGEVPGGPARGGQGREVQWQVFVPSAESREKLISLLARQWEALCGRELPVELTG

In the case of `c1ccc(-c2ncc3cc(-n4ccnc4)ccc3n2)cc1` [CR4056, 2-phenyl-6-(1H-imidazol-1yl)quinazoline], the “Locomotor activity levels in open field test” value in data set [1] is “no statistical differences”. Besides, the “Activity in enzyme characterization panel” value at cycooxygenase-2 (COX2), on PI 3-Kγ, at carbonic anhydrase II, on PI 3-Kβ and at PI 3-Kδ was “inactive” each time. Further, the Diuretic effect entry in the data set with rats is recorded as “dose-dependent diuretic effect”. The inhibition at 10 µM on I1 was 23%; on MAO-A (read-out: 10 μM CR4056 (% effect), inhibition of specific binding, 10 μM, [3H]Ro 41-1049, cerebral cortex/rat), above 90%; at CCK1, 21%; in [2] it was 19%; at D1 it was 19%. For the same compound, the half-inhibitory concentration (IC50) at MAO-A is 358 ± 12 nM; on imidazoline I2 receptor, 596 ± 76 nM. The “Performance in rotarod test” value in [3] is given as “did not cause a deterioration”. The “10 μM CR4056 (% effect), inhibition of specific binding” value with BDZ (central) is 21%. In the data set on conscious rat, the Respiratory effects entry is on record as “tachypnea associated with a respiratory stimulant effect”.
